Measurements as given in PubChem BioAssay (NCI).
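Cultured in 96-well plates, cells were exposed to test compound for 48 hours across five concentrations. Abbreviation: GI50, concentration required for 50% inhibition of growth. TGI: total growth inhibition.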

Tests used:
Test in all cases: DTP human tumour cell line panel, 48 h
[1] = tested on: CCRF-CEM leukemia
[2] = tested on: NCI-H460 lung
[3] = tested on: MDA-MB-435
[4] = tested on: DU-145 prostate
[5] = tested on: RXF 393 renal
[6] = tested on: SF-268 CNS
[7] = tested on: SK-MEL-28 melanoma
[8] = tested on: HS 578T breast
[9] = tested on: A549 NSCLC
[10] = tested on: HOP-62 NSCLC
[11] = tested on: A498 renal
[12] = tested on: MCF7 breast
[13] = tested on: HCT-116 colon
[14] = tested on: UACC-62 melanoma
[15] = tested on: SK-MEL-5 melanoma
[16] = tested on: TK-10 renal
[17] = tested on: SN12C renal
[18] = tested on: SF-539 CNS
[19] = tested on: U251 CNS
[20] = tested on: MALME-3M melanoma
[21] = tested on: NCI/ADR-RES ovarian
[22] = tested on: SW-620 colon
[23] = tested on: SK-MEL-2 melanoma
[24] = tested on: NCI-H226 lung
[25] = tested on: 786-0 renal
[26] = tested on: M14 melanoma
[27] = tested on: KM12 colon
[28] = tested on: SK-OV-3 ovarian
[29] = tested on: NCI-H522 lung
[30] = tested on: EKVX NSCLC
[31] = tested on: MDA-MB-231 breast
[32] = tested on: RPMI-8226 leukemia
[33] = tested on: HCT-15 colon
[34] = tested on: SNB-19 CNS
[35] = tested on: CAKI-1 renal
[36] = tested on: ACHN renal
[37] = tested on: PC-3 prostate
[38] = tested on: HT29 colon
[39] = tested on: HOP-92 NSCLC
[40] = tested on: OVCAR-5 ovarian
[41] = tested on: NCI-H23 lung
[42] = tested on: OVCAR-8 ovarian
[43] = tested on: BT-549 breast
[44] = tested on: UO-31 renal
[45] = tested on: OVCAR-3 ovarian
[46] = tested on: HCC-2998 colon
[47] = tested on: OVCAR-4 ovarian
[48] = tested on: HL-60(TB) leukemia
[49] = tested on: SF-295 CNS
[50] = tested on: UACC-257 melanoma
[51] = tested on: SNB-75 CNS
[52] = tested on: K-562 leukemia
[53] = tested on: IGROV1 ovarian
[54] = tested on: T-47D breast
[55] = tested on: COLO 205 colon
[56] = tested on: MOLT-4 leukemia
[57] = tested on: SR leukemia
[58] = tested on: LOX IMVI melanoma

SMILES: Fc1ccc2[nH]cc(-c3nonc3-c3c[nH]c4ccc(Br)cc34)c2c1
- GI50 [1]: 3.07 µM
- TGI [1]: 14.9 µM
- GI50 [2]: 2.07 µM
- TGI [2]: 4.88 µM
- GI50 [3]: 3.27 µM
- TGI [3]: 12.3 µM
- GI50 [4]: 3.57 µM
- TGI [4]: 13.2 µM
- GI50 [5]: 2.85 µM
- TGI [5]: 8.75 µM
- GI50 [6]: 3.01 µM
- TGI [6]: 12.4 µM
- GI50 [7]: 2.86 µM
- TGI [7]: 8.15 µM
- GI50 [8]: 2.27 µM
- TGI [8]: 5.96 µM
- GI50 [9]: 2.87 µM
- TGI [9]: 7.99 µM
- GI50 [10]: 1.89 µM
- TGI [10]: 5.07 µM
- GI50 [11]: 2.7 µM
- TGI [11]: 6.38 µM
- GI50 [12]: 2.19 µM
- TGI [12]: 5.66 µM
- GI50 [13]: 1.84 µM
- TGI [13]: 4.23 µM
- GI50 [14]: 1.72 µM
- TGI [14]: 4.38 µM
- GI50 [15]: 1.88 µM
- TGI [15]: 4.25 µM
- GI50 [16]: 3.04 µM
- TGI [16]: 6.63 µM
- GI50 [17]: 3.13 µM
- TGI [17]: 12.5 µM
- GI50 [18]: 2.15 µM
- TGI [18]: 5.27 µM
- GI50 [19]: 3.26 µM
- TGI [19]: 10.3 µM
- GI50 [20]: 2.34 µM
- TGI [20]: 7.85 µM
- GI50 [21]: 2.87 µM
- TGI [21]: 10.1 µM
- GI50 [22]: 1.76 µM
- TGI [22]: 3.84 µM
- GI50 [23]: 2.23 µM
- TGI [23]: 5.13 µM
- GI50 [24]: 2.13 µM
- TGI [24]: 5.3 µM
- GI50 [25]: 2.16 µM
- TGI [25]: 4.5 µM
- GI50 [26]: 1.87 µM
- TGI [26]: 4.98 µM
- GI50 [27]: 1.77 µM
- TGI [27]: 4.05 µM
- GI50 [28]: 4.34 µM
- TGI [28]: 22.4 µM
- GI50 [29]: 1.85 µM
- TGI [29]: 4.47 µM
- GI50 [30]: 1.88 µM
- TGI [30]: 6.01 µM
- GI50 [31]: 1.3 µM
- TGI [31]: 2.88 µM
- GI50 [32]: 2.49 µM
- TGI [32]: 9.91 µM
- GI50 [33]: 1.64 µM
- TGI [33]: 3.29 µM
- GI50 [34]: 2.25 µM
- TGI [34]: 5.69 µM
- GI50 [35]: 2.89 µM
- TGI [35]: 13.8 µM
- GI50 [36]: 2 µM
- TGI [36]: 8.42 µM
- GI50 [37]: 2.05 µM
- TGI [37]: 7.68 µM
- GI50 [38]: 2.01 µM
- TGI [38]: 4.03 µM
- GI50 [39]: 1.97 µM
- TGI [39]: 5.52 µM
- GI50 [40]: 2.15 µM
- TGI [40]: 5.8 µM
- GI50 [41]: 1.95 µM
- TGI [41]: 5.86 µM
- GI50 [42]: 3.38 µM
- TGI [42]: 17.5 µM
- GI50 [43]: 3.38 µM
- TGI [43]: 15 µM
- GI50 [44]: 1.39 µM
- TGI [44]: 4.36 µM
- GI50 [45]: 2.07 µM
- TGI [45]: 5.43 µM
- GI50 [46]: 1.89 µM
- TGI [46]: 3.83 µM
- GI50 [47]: 3.45 µM
- TGI [47]: 18.5 µM
- GI50 [48]: 2.94 µM
- TGI [48]: 11.6 µM
- GI50 [49]: 1.94 µM
- TGI [49]: 4.2 µM
- GI50 [50]: 4.17 µM
- TGI [50]: 13.8 µM
- GI50 [51]: 1.89 µM
- TGI [51]: 16.9 µM
- GI50 [52]: 2.22 µM
- TGI [52]: 7.38 µM
- GI50 [53]: 3.41 µM
- TGI [53]: 18.3 µM

SMILES: Cc1ccc(C)c2c1C(O)(C#Cc1ccccc1)c1ccccc1C2(O)C#Cc1ccccc1 (stereo not given)
- GI50 [1]: 2.36 µM
- TGI [1]: > 25.4 µM
- GI50 [2]: 2.38 µM
- TGI [2]: 12 µM
- GI50 [3]: 2.42 µM
- TGI [3]: 16.2 µM
- GI50 [4]: 3.32 µM
- TGI [4]: > 100 µM
- GI50 [6]: 3.65 µM
- TGI [6]: > 100 µM
- GI50 [7]: 3.75 µM
- TGI [7]: > 88.5 µM
- GI50 [8]: 3.4 µM
- TGI [8]: > 100 µM
- GI50 [9]: 3.12 µM
- TGI [9]: > 100 µM
- GI50 [10]: 5.88 µM
- TGI [10]: > 100 µM
- GI50 [11]: 2.2 µM
- TGI [11]: 14.9 µM
- GI50 [12]: 2.47 µM
- TGI [12]: > 100 µM
- GI50 [13]: 3.04 µM
- TGI [13]: > 100 µM
- GI50 [14]: 2.84 µM
- TGI [14]: > 100 µM
- GI50 [15]: 1.63 µM
- TGI [15]: 4.99 µM
- GI50 [16]: 3.68 µM
- TGI [16]: > 100 µM
- GI50 [17]: 3.04 µM
- TGI [17]: 89.2 µM
- GI50 [18]: 3.42 µM
- TGI [18]: > 79.3 µM
- GI50 [19]: 2.76 µM
- TGI [19]: > 100 µM
- GI50 [21]: 3.63 µM
- TGI [21]: > 28.9 µM
- GI50 [22]: 3.03 µM
- TGI [22]: > 100 µM
- GI50 [23]: 2.98 µM
- TGI [23]: 11.5 µM
- GI50 [24]: 1.9 µM
- TGI [24]: 9.46 µM
- GI50 [25]: 3.72 µM
- TGI [25]: > 35.7 µM
- GI50 [54]: 2 µM
- TGI [54]: > 27.5 µM
- GI50 [55]: 2.01 µM
- TGI [55]: 6.48 µM
- GI50 [26]: 3.6 µM
- TGI [26]: > 82.5 µM
- GI50 [56]: 2.5 µM
- TGI [56]: > 23.3 µM
- GI50 [27]: 2.93 µM
- TGI [27]: 27.1 µM
- GI50 [28]: 3.44 µM
- TGI [28]: > 100 µM
- GI50 [57]: 2.52 µM
- TGI [57]: > 100 µM
- GI50 [29]: 4.55 µM
- TGI [29]: > 100 µM
- GI50 [30]: 3.36 µM
- TGI [30]: > 29 µM
- GI50 [31]: 2.84 µM
- TGI [31]: > 100 µM
- GI50 [32]: 1.83 µM
- GI50 [33]: 1.03 µM
- TGI [33]: > 100 µM
- GI50 [34]: 3.74 µM
- TGI [34]: > 100 µM
- GI50 [35]: 2.38 µM
- TGI [35]: > 30.7 µM
- GI50 [36]: 2.84 µM
- TGI [36]: > 100 µM
- GI50 [37]: 2.42 µM
- TGI [37]: > 23.7 µM
- GI50 [38]: 2.96 µM
- TGI [38]: > 100 µM
- GI50 [39]: 2.29 µM
- TGI [39]: > 27.3 µM
- GI50 [40]: 8.39 µM
- TGI [40]: > 100 µM
- GI50 [41]: 3.23 µM
- TGI [41]: > 29.5 µM
- GI50 [42]: 3.82 µM
- TGI [42]: > 100 µM
- GI50 [58]: 3.44 µM
- TGI [58]: > 64.2 µM
- GI50 [44]: 1.89 µM
- TGI [44]: 6.83 µM
- GI50 [45]: 3.12 µM
- TGI [45]: > 34.7 µM
- GI50 [46]: 5.56 µM
- TGI [46]: > 100 µM
- GI50 [47]: 3.85 µM
- TGI [47]: > 100 µM
- GI50 [48]: 4.04 µM
- TGI [48]: > 100 µM
- GI50 [49]: 2.91 µM
- TGI [49]: > 100 µM
- GI50 [50]: 2.54 µM
- TGI [50]: 6.6 µM
- GI50 [51]: 4.04 µM
- TGI [51]: > 100 µM
- GI50 [52]: 4.4 µM
- TGI [52]: > 100 µM
- GI50 [53]: 3.05 µM
- TGI [53]: 51.3 µM
